We go through five compounds from patent US7105675B2, “Pyridomorphinans, thienomorphinans and use thereof” (Southern Research Institute, priority 1999, dated 2006).

Molecules are shown by their SMILES. Read-outs that look alike come from different tables or passages of the source.

The target in assay [1] is T1, δ opioid receptor (DPDPE) in MVD (Mus musculus, UniProt P32300).
T1 construct: Electrically-induced smooth muscle contractions of mouse vas deferens and strips of guinea pig ileum longitudinal muscle myenteric plexus were used; from tissue; host or cells: mouse vas deferens (male ICR mice)
Particulars: data taken from Ananthan et al.; cited from earlier work.

For assay [2], the system named is mouse vas deferens. As to conditions: percentage inhibition of contraction at 1 μM; data taken from Ananthan et al.; cited from earlier work.
For assay [3], the system named is μ opioid receptor (PL017) in GPI. As to conditions: data taken from Ananthan et al.; cited from earlier work.
The target in assay [4] is T2, δ opioid receptor (Rattus norvegicus, UniProt P33533). Particulars: data taken from Ananthan et al., cited from earlier work.
Assay [5] addresses T3, κ1 opioid receptor (Cavia porcellus, UniProt P41144).
T3 construct: Guinea pig brain membranes were prepared each day using partially thawed guinea pig brain; from tissue; host or cells: guinea pig brain membranes
Particulars: read-out: Ki (nM) ± SEM κ1; [3H]U69,593, guinea pig brain membranes; data taken from Ananthan et al.; cited from earlier work.

Assay [6] has as its system guinea pig ileum longitudinal muscle myenteric plexus. Particulars: percentage inhibition of contraction at 1 μM; data taken from Ananthan et al.; cited from earlier work.
Assay [7] concerns the target T4, μ opioid receptor (Rattus norvegicus, UniProt P33535).
T4 construct: Rat membranes were prepared each day using a partially thawed frozen rat brain; from tissue; host or cells: rat brain membranes
Particulars: read-out: Ki (nM) ± SEM μ; [3H]DAMGO, rat brain membranes; data taken from Ananthan et al.; cited from earlier work.

For assay [8], the system named is mouse vas deferens. Nature of the assay: Agonist activity in MVD smooth muscle preparation, inhibition of contraction. Type of assay: cell-based. Particulars: read-out: agonist activity MVD IC50 (nM) or % max resp. The method, then: (§1) Bioassays in GPI and MVD smooth muscle preparations. Electrically-induced smooth muscle contractions of mouse vas deferens and strips of guinea pig ileum longitudinal muscle myenteric plexus were used. Tissues came from maile ICR mice weighing 25–40 g and male Hartley guinea pigs weighing 250–500 g. The tissues were tied to gold chain with suture silk, suspended in 20 mL baths containing 37° C. oxygenated (95% O2, 5% CO2) Krebs bicarbonate solution (magnesium free for the MVD), and allowed to equilibrate for 15 min. The tissues were then stretched to optimal length previously determined to be 1 g tension (0.5 g for MVD) and allowed to equilibrate for 15 min. The tissues were stimulated transmurally between platinum wire electrodes at 0.1 Hz, 0.4 ms pulses (2-ms pulses for MVD), and supramaximal voltage. An initial dose-response curve of DPDPE or PL-017 was constructed at the start of each assay to establish tissue effects, allowing each tissue to be used as its own control.
(§2) Tissues not producing typical results were not used. Experimental compounds were added to the baths in 14–60 μL volumes. Succeeding doses of argonist were added cumulatively to the bath at 3 minute intervals to produce a concentration-response curve. The tissues were then washed extensively with fresh buffer until the original contraction height was re-established. […] Antagonist effects to DPDPE and PL-017 were assayed after incubation of the tissues with 1 μM concentration of the compound in the bath for 30 minutes. The tissues were then washed with fresh buffer for 30 min, and the agonist dose-response curve was repeated. Rightward shifts in the dose-response curves were calculated by dividing the antagonized dose-response curve IC50 value by the unantagoniced IC50 value. IC50 values represent the mean of two to four tissues. IC50 estimates and their associated standard errors were determined by using a computerized nonlinear least-squares method.

Assay [9] has as its target T1, δ opioid receptor (DPDPE) in MVD. Nature of the assay: Antagonist activity against DPDPE in electrically stimulated mouse vas deferens (MVD). It counts as cell-based. Particulars: for antagonist activity DPDPE (δ) MVD IC50 ratio: 1 μM compound, 30 min incubation, IC50 of DPDPE with antagonist divided by control IC50; for Ke selectivity ratio μδ: Ke GPI (μ) over Ke MVD (δ). The method, then:
as §1, §2

The target of assay [10] is T4, μ opioid receptor. Nature of the assay: Radioligand binding, mu sites, displacement of [3H]DAMGO in rat brain membranes. The method, then:
(§3) Radioligand Binding Assays. Mu binding sites were labeled using [^3H]DAMGO (1–3 nM). Rat membranes were prepared each day using a partially thawed frozen rat brain which was homogenized with a polytron in 10 mL/brain of ice cold 10 mM Tris-HCl, pH 7.0. Membranes were then centrifuged twice at 30,000 g for 10 min and resuspended with ice-cold buffer following each centrifugation. After the second centrifugation, the membranes were resuspended in 50 mM Tris-HCl, pH 7.4 (50 mL/brain) at 25° C. Incubations proceeded for 2 h at 25° C. in 50 mM Tris-HCl, pH 7.4, along with a protease inhibitor cocktail (PIC). The nonspecific binding was determined using 20 μM of levallorphan. Delta binding sites were labeled using [^3]DADLE (2 nM) and rat brain membranes. Rat membranes were prepared each day using a partially thawed frozen rat brain which was homogenized with a polytron in 10 mL/brain of ice cold 10 mM Tris-HCl, pH 7.0. Membranes were then centrifuged twice at 30,000 g for 10 min and resuspended with ice-cold buffer following each centrifugation. After the second centrifugation, the membranes were resuspended in 50 mM Tris-HCl, pH 7.4 (50 mL/brain) at 25° C. Incubations proceeded for 2 h at 25° C. in 50 mM Tris-HCl pH 7.4, containing 100 mM choline chloride, 3 mM MnCl2, and 100 nM DAMGO to block binding to μ sites, and PIC. Nonspecific binding was determined using 20 μM levallorphan. Kappa binding sites were labeled using [^3H]U69,593 (2 nM). Guinea pig brain membranes were prepared each day using partially thawed guinea pig brain which was homogenized with a polytron in 10 mL/brain of ice cold 10 mM Tris-HCl pH 7.0. The membranes were then centrifuged twice at 30,000 g for 10 min and resuspended with ice-cold buffer following each centrifugation. After the second centrifugation, the membranes were resuspended in 50 mM Tris-HCl, pH 7.4 (75 mL/brain) at 25° C. Incubations proceeded for 2 h at 25° C. in 50 mM Tris-HCl, pH 7.4, containing 1 μg/mL of captopril and PIC. Nonspecific binding was determined using 1 μM U69,593. Each ^3H ligand was displaced by 8–10 concentrations of test drug, two times. Compounds were prepared as 1 mM solution with 10 mM Tris buffer (pH 7.4) containing 10% DMSO before drug dilution. All drug dilutions were done at 10 mM Tris-HCl, pH 7.4, containing 1 mg/mL bovine serum albumin. All washes were done with ice-cold 10 mM Tris-HCl, pH 7.4. The IC50 and slope factor (N) were obtained by using the program MLAB-PC (Civilized Software, Bethesda, Md.). Ki values were calculated according to the equation Ki=IC50/(1+[L]/Kd).
(Displacement assays read how much labelled ligand stays bound in the presence of the test substance.)

Assay [11] concerns guinea pig ileum longitudinal muscle myenteric plexus. Nature of the assay: Agonist activity in GPI smooth muscle preparation, inhibition of contraction. Type of assay: cell-based. Particulars: Cavia porcellus; read-out: agonist activity GPI IC50 (nM) or % max resp. The method, then:
as §1, §2

Assay [12] addresses T3, κ1 opioid receptor. Kind of assay: Radioligand binding, kappa sites, displacement of [3H]U69,593 in guinea pig brain membranes. The method, then:
as §3

For assay [13], the target named is T2, δ opioid receptor. Nature of the assay: Radioligand binding, delta sites, displacement of [3H]DADLE in rat brain membranes. Particulars: for Selectivity Ratio κ1δ / Selectivity Ratio μ/δ: thienomorphinans, ratio of Ki values. More on the design: Rat membranes were prepared each day using a partially thawed frozen rat brain; from tissue; host or cells: rat brain membranes. The method, then: as §3

In assay [14] the test system is μ opioid receptor (PL017) in GPI. Kind of assay: Antagonist activity against PL-017 in electrically stimulated guinea pig ileum (GPI). As to conditions: for antagonist activity PL017 (μ) GPI IC50 ratio: 1 μM compound, 30 min incubation, IC50 of PL-017 with antagonist divided by control IC50; for antagonist activity PL017 (μ) GPI Ke: Ke = [antagonist]/(IC50 ratio − 1), PL-017 as agonist, n = 3. Type of assay: cell-based. The method, then:
as §1, §2

T3 sequence (P41144 whole entry): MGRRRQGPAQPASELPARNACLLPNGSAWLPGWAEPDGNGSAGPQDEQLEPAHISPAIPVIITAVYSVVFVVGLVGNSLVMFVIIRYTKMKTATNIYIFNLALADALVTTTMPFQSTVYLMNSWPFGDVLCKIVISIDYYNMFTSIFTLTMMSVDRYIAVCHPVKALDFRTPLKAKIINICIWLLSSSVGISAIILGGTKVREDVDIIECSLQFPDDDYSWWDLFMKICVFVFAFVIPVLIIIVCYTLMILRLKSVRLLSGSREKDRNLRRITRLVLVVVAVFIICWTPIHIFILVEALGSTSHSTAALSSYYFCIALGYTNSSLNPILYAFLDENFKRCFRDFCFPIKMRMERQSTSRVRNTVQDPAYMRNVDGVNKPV
T2 sequence (P33533 whole entry): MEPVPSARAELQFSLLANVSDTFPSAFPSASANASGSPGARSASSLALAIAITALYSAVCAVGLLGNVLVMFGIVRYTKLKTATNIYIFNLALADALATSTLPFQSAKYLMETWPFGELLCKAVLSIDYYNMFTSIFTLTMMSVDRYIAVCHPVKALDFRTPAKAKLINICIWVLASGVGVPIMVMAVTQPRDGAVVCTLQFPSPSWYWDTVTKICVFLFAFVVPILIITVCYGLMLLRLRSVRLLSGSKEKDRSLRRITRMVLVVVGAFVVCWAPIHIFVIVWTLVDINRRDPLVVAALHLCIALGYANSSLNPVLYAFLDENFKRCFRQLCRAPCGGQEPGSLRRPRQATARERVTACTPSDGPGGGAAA
T4 sequence (P33535 whole entry): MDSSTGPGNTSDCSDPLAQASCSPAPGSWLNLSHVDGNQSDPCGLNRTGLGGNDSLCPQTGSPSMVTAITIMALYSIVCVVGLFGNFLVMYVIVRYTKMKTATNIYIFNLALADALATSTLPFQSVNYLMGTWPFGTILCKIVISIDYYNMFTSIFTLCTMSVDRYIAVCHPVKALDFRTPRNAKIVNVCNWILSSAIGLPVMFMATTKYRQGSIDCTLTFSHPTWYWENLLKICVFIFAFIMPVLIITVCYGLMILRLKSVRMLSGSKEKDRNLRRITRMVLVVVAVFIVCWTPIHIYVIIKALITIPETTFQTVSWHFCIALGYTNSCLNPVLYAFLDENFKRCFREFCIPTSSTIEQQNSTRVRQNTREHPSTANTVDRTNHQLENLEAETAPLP
T1 sequence (P32300 whole entry): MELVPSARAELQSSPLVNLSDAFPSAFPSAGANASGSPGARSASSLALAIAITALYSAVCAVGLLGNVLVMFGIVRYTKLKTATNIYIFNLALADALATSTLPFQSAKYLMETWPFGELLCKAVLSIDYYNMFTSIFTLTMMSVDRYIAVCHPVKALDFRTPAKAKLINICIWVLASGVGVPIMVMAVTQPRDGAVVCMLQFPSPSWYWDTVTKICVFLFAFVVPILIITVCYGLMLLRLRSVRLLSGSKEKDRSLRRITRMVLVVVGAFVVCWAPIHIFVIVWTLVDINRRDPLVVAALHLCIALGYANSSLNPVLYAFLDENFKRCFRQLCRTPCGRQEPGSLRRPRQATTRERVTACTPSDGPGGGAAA

As a reminder, the Ki is the equilibrium dissociation constant of an inhibitor or competing ligand from its target. For the compound `Oc1ccc2c3c1OC1c4ncccc4CC4(O)C(C2)N(CC2CC2)CCC314` (stereo not drawn) [Compound 7a], in [1], the “Ke selectivity ratio μδ” value is on record as 4.4, the “antagonist activity DPDPE (δ) MVD IC50 ratio” value is on record as 27.9 ± 1.2 and the “antagonist activity DPDPE (δ) MVD Ke” value is 37 nM. In the assay on mouse vas deferens [2], the “agonist activity MVD IC50 (nM) or % max resp” value was 0%. In addition, in assay [3], the “antagonist activity PL017 (μ) GPI IC50 ratio” value was 7.08 ± 3.44 and the “antagonist activity PL017 (μ) GPI Ke” value is listed as 164 nM. Besides, on δ opioid receptor [4] (ratio of Ki values), the “Selectivity Ratio κ1δ” value is recorded as 11 and the “Selectivity Ratio μ/δ” value is recorded as 1.9. Besides, on δ opioid receptor [4] (read-out: Ki (nM) ± SEM δ, [3H]DADLE, rat brain membranes), the Ki was 0.78 ± 0.06 nM. For the same compound, at κ1 opioid receptor [5], the Ki was 8.8 ± 0.69 nM. In addition, the “agonist activity GPI IC50 (nM) or % max resp” value in assay [6] is recorded as 0%. Moreover, on μ opioid receptor [7], the Ki was 1.5 ± 0.09 nM.

The term Kb denotes the affinity of an antagonist, worked out from how it opposes an agonist. Consider `COC(=O)c1c(N)sc2c1[C@@H]1Oc3c(O)ccc4c3[C@@]13CCN(CC1CC1)[C@H](C4)[C@]3(O)C2` [Compound 8b, 5′-Amino-4′-carbomethoxy-17-(cyclopropylmethyl)-6,7-didehydro-3,14-dihydroxy-4,5α-epoxythieno[2′,3′:7,6]morphinan], for which, in the assay with mouse vas deferens [8], the inhibition at 1 µM was 0%. In addition, in assay [9], the Kb came to 0.021 µM, the “antagonist activity DPDPE (δ) MVD IC50 ratio” value turned out to be 53.5 ± 10.1 and the “Ke selectivity ratio μδ” value is listed as 1.7. Further, the Ki on μ opioid receptor [10] stood at 0.029 ± 0.004 µM. Further, the inhibition at 1 µM in assay [11] was 0%. At κ1 opioid receptor [12], the Ki was found to be 0.0087 ± 0.00034 µM. At δ opioid receptor [13], the Ki was 0.0066 ± 0.0003 µM, the “Selectivity Ratio κ1δ” value is recorded as 1.3 and the “Selectivity Ratio μ/δ” value came to 4.4. For the same compound, in assay [14], the “antagonist activity PL017 (μ) GPI IC50 ratio” value is given as 39.1 ± 11.6 and the “antagonist activity PL017 (μ) GPI Ke” value was found to be 35 nM.

Consider `CCOC(=O)c1c(N)sc2c1[C@@H]1Oc3c(O)ccc4c3[C@@]13CCN(CC1CC1)[C@H](C4)[C@]3(O)C2` [Compound 8c, 5′-Amino-4′-carbethoxy-17-(cyclopropylmethyl)-6,7-didehydro-3,14-dihydroxy-4,5α-epoxythieno[2′,3′:7,6]morphinan], for which the inhibition at 1 µM in the assay on mouse vas deferens [8] was 11%. In addition, in assay [9], the Kb turned out to be 0.068 µM, the “antagonist activity DPDPE (δ) MVD IC50 ratio” value came out at 19.8 ± 6.6 and the “Ke selectivity ratio μδ” value came to 0.4. This compound returned a Ki at μ opioid receptor [10] of 0.02 ± 0.001 µM. Further, in assay [11], the inhibition at 1 µM was determined as 0%. In addition, the inhibitory constant (Ki) on κ1 opioid receptor [12] stood at 0.009 ± 0.00081 µM. Besides, on δ opioid receptor [13], the Ki came to 0.005 ± 0.0002 µM, the “Selectivity Ratio κ1δ” value is listed as 1.8 and the “Selectivity Ratio μ/δ” value turned out to be 4.0. In addition, in assay [14], the “antagonist activity PL017 (μ) GPI IC50 ratio” value came to 46.0 ± 21.9 and the “antagonist activity PL017 (μ) GPI Ke” value is listed as 26 nM.

With `NC(=O)c1c(N)sc2c1[C@@H]1Oc3c(O)ccc4c3[C@@]13CCN(CC1CC1)[C@H](C4)[C@]3(O)C2` [Compound 8e, 5′-Amino-4′-aminocarbonyl-17-(cyclopropylmethyl)-6,7-didehydro-3,14-dihydroxy-4,5α-epoxythieno[2′,3′:7,6]morphinan], the inhibition at 1 µM in the assay on mouse vas deferens [8] stood at 5%. In assay [9], the Kb was 0.01 µM, the “antagonist activity DPDPE (δ) MVD IC50 ratio” value is given as 118.6 ± 38.4 and the “Ke selectivity ratio μδ” value came to 2.4. Further, the Ki at μ opioid receptor [10] was determined as 0.021 ± 0.0013 µM. Moreover, in [11], the inhibition at 1 µM stood at 4%. The compound also displayed a Ki on κ1 opioid receptor [12] of 0.002 ± 0.0002 µM. Also, at δ opioid receptor [13], the affinity, expressed as Ki, was 0.0037 ± 0.0002 µM; the “Selectivity Ratio κ1δ” value worked out at 0.5; the “Selectivity Ratio μ/δ” value is recorded as 5.7. Also, in assay [14], the “antagonist activity PL017 (μ) GPI IC50 ratio” value was determined as 47.8 ± 10.7 and the “antagonist activity PL017 (μ) GPI Ke” value is 24 nM.

Regarding `Nc1sc2c(c1C(=O)c1ccccc1)[C@@H]1Oc3c(O)ccc4c3[C@@]13CCN(CC1CC1)[C@H](C4)[C@]3(O)C2` [Compound 8f, 5′-Amino-4′-benzoyl-17-(cyclopropylmethyl)-6,7-didehydro-3,14-dihydroxy-4,5α-epoxythieno[2′,3′:7,6]morphinan], the inhibition at 1 µM with mouse vas deferens [8] amounted to 15%. In [9], the antagonist dissociation constant (Kb) was determined as 0.046 µM, the “antagonist activity DPDPE (δ) MVD IC50 ratio” value is 24.4 ± 4.0 and the “Ke selectivity ratio μδ” value came out at 1.3. For the same compound, affinity on μ opioid receptor [10] was put at a Ki of 0.05 ± 0.003 µM. In addition, in assay [11], the inhibition at 1 µM stood at 25%. This compound also yielded a Ki at κ1 opioid receptor [12] of 0.014 ± 0.0007 µM. Moreover, on δ opioid receptor [13], the affinity corresponds to a Ki of 0.014 ± 0.0007 µM, the “Selectivity Ratio κ1δ” value came out at 1.0 and the “Selectivity Ratio μ/δ” value turned out to be 3.6. In assay [14], the “antagonist activity PL017 (μ) GPI IC50 ratio” value is 21.6 ± 7.7 and the “antagonist activity PL017 (μ) GPI Ke” value came to 62 nM.
